According to paper PMC5564600 (Oncotarget, 2017):
Like-named read-outs stand apart in the source and are kept apart here.

How the values were obtained:
Experiment in all cases: biochemical
Type in all cases: binding
panel of 442 kinases [1] = target: T1, panel of 442 kinases (Homo sapiens, UniProt Q15418)
T1 construct: purchased Ambit Biosciences (scanMAXX KINOMEscan)

panel of 442 kinases [2] = target: T2, panel of 442 kinases (Homo sapiens, UniProt Q9NWZ3); details: kinase IRAK4; for remaining activity at 1 µM: read-out: % of control at 1 µM
T2 construct: purchased Ambit Biosciences (scanMAXX KINOMEscan)
T2 sequence (Q9NWZ3 1-460): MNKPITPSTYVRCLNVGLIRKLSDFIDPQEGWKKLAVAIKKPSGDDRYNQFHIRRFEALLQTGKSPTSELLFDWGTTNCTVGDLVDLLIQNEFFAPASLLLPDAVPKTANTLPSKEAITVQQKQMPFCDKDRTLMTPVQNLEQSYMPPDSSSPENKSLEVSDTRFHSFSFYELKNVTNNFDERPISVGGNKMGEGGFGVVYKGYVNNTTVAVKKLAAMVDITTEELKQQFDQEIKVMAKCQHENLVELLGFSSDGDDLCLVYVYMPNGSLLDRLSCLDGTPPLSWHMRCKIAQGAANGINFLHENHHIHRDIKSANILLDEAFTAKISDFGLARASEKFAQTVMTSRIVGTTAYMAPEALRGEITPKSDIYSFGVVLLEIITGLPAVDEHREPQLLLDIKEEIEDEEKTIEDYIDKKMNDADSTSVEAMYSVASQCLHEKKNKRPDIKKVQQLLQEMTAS

panel of 442 kinases [3] = target: T3, panel of 442 kinases (Homo sapiens, UniProt Q9P1W9); details: kinase PIM2; for remaining activity at 1 µM: read-out: % of control at 1 µM
T3 construct: purchased Ambit Biosciences (scanMAXX KINOMEscan)

panel of 442 kinases [4] = target: T4, panel of 442 kinases (Homo sapiens, UniProt Q9UBE8); details: kinase NLK; for remaining activity at 1 µM: read-out: % of control at 1 µM
T4 construct: purchased Ambit Biosciences (scanMAXX KINOMEscan)
T4 sequence (Q9UBE8 1-527): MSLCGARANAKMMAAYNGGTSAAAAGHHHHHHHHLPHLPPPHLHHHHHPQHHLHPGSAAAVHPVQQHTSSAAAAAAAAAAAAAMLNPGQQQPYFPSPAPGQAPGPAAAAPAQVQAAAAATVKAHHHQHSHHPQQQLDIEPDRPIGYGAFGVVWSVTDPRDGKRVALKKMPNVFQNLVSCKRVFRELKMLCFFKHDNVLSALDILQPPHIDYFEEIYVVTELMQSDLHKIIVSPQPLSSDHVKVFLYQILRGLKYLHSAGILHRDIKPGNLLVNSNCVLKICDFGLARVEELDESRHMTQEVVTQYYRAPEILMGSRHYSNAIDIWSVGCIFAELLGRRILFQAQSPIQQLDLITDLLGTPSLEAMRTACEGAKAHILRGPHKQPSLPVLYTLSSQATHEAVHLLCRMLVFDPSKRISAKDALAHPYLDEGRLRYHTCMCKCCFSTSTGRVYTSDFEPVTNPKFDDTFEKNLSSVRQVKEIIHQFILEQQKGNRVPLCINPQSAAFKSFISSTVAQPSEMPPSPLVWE

panel of 442 kinases [5] = target: T5, panel of 442 kinases (Homo sapiens, UniProt O14757); details: CHEK1; for remaining activity at 1 µM: read-out: % of control at 1 µM
T5 construct: purchased Ambit Biosciences (scanMAXX KINOMEscan)
T5 sequence (O14757 1-476): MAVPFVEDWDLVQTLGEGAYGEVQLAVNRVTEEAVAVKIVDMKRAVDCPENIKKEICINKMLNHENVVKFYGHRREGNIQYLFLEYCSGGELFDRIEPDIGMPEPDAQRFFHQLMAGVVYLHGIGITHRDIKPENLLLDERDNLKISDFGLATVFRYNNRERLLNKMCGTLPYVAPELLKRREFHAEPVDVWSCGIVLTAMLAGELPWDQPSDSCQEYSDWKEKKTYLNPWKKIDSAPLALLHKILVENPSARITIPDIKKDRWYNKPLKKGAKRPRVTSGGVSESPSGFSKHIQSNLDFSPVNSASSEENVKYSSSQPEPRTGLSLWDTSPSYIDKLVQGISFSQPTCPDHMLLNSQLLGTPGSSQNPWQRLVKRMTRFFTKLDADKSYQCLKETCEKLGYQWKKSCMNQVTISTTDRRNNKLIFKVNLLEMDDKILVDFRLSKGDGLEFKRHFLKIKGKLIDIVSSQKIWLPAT

panel of 442 kinases [6] = target: T6, panel of 442 kinases (Homo sapiens, UniProt P37023); details: ACVRL1; for remaining activity at 1 µM: read-out: % of control at 1 µM
T6 construct: purchased Ambit Biosciences (scanMAXX KINOMEscan)

panel of 442 kinases [7] = target: T7, panel of 442 kinases (Homo sapiens, UniProt P00519, E255K); details: ABL1(E255K)-phosphorylated; for remaining activity at 1 µM: read-out: % of control at 1 µM
T7 construct: purchased Ambit Biosciences (scanMAXX KINOMEscan)

panel of 442 kinases [8] = target: T8, panel of 442 kinases (Homo sapiens, UniProt P29597)
T8 construct: purchased Ambit Biosciences (scanMAXX KINOMEscan)

[9] = kinase RSK1(Kin.Dom.1-N-terminal), read-out: RSK1(Kin.Dom.1-N-terminal) (% of control at 1 µM)
[10] = kinase RSK1(Kin.Dom.2-C-terminal), read-out: RSK1(Kin.Dom.2-C-terminal) (% of control at 1 µM)
[11] = 10 µM, read-out: % of control at 10 µM
[12] = kinase TYK2(JH1domain-catalytic), read-out: TYK2(JH1domain-catalytic) (% of control at 1 µM)
[13] = kinase TYK2(JH2domain-pseudokinase), read-out: TYK2(JH2domain-pseudokinase) (% of control at 1 µM)

T8 sequence (P29597 whole entry): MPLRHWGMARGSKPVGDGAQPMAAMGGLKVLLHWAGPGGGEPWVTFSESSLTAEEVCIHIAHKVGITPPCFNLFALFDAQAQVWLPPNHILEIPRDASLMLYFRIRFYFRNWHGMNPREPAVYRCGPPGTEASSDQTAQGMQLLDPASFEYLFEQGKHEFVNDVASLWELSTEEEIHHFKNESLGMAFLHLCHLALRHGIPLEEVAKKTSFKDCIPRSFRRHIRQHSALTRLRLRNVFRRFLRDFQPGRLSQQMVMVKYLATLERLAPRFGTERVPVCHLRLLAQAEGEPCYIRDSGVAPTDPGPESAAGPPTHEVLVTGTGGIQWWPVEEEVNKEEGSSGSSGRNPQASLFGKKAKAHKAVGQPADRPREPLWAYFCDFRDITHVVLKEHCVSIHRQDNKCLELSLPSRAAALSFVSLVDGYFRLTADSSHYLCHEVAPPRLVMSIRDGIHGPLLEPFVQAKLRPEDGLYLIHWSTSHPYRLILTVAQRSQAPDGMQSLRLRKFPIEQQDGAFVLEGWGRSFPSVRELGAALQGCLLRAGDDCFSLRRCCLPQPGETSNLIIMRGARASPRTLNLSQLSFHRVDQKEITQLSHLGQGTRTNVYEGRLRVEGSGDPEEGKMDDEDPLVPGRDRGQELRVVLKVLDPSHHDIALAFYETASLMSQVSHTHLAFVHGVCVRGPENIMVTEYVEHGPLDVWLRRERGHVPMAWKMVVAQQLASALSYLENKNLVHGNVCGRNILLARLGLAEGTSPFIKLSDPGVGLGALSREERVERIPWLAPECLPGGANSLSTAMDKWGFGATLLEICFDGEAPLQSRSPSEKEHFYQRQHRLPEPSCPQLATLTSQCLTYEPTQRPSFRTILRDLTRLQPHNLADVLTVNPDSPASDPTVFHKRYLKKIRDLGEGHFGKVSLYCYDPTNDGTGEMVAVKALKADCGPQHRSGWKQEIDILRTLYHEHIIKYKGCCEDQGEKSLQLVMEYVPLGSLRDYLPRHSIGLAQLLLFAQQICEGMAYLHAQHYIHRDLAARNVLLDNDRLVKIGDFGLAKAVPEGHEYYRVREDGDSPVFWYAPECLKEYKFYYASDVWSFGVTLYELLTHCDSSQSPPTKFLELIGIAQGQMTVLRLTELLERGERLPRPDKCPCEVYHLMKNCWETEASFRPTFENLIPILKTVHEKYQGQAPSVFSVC
T1 sequence (Q15418 whole entry): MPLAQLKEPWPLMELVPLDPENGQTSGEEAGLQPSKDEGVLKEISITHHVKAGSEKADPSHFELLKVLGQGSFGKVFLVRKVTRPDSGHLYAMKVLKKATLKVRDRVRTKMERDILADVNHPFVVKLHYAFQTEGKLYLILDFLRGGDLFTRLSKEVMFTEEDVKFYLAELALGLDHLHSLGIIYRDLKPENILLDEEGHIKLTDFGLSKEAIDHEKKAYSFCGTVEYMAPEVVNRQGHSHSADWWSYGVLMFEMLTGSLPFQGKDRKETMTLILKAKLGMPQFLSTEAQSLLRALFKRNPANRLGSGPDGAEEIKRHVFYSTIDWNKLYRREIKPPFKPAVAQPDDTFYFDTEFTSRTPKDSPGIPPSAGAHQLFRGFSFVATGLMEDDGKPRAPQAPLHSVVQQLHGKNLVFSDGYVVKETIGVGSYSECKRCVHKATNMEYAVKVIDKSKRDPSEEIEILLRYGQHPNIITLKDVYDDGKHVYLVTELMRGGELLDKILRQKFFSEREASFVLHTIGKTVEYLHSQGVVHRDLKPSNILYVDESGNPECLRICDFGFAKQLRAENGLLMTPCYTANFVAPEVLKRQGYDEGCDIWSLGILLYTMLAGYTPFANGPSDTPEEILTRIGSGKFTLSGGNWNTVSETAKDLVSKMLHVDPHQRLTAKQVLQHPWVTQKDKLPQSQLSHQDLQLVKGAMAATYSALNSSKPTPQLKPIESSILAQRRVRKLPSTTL
T6 sequence (P37023 22-503): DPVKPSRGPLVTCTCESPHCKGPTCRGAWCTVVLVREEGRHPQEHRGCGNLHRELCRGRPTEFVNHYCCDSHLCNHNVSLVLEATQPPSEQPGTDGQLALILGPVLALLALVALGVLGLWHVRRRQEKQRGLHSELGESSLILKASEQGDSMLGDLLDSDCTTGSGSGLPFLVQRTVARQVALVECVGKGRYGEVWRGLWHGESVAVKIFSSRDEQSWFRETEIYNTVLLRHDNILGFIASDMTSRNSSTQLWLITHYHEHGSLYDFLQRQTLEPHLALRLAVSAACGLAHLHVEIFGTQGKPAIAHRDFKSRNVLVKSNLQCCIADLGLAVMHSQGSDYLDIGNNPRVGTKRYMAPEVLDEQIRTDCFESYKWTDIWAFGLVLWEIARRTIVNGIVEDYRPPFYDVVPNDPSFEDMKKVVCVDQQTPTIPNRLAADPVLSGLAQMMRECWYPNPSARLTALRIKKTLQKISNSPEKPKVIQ
T7 sequence (P00519 whole entry E255K): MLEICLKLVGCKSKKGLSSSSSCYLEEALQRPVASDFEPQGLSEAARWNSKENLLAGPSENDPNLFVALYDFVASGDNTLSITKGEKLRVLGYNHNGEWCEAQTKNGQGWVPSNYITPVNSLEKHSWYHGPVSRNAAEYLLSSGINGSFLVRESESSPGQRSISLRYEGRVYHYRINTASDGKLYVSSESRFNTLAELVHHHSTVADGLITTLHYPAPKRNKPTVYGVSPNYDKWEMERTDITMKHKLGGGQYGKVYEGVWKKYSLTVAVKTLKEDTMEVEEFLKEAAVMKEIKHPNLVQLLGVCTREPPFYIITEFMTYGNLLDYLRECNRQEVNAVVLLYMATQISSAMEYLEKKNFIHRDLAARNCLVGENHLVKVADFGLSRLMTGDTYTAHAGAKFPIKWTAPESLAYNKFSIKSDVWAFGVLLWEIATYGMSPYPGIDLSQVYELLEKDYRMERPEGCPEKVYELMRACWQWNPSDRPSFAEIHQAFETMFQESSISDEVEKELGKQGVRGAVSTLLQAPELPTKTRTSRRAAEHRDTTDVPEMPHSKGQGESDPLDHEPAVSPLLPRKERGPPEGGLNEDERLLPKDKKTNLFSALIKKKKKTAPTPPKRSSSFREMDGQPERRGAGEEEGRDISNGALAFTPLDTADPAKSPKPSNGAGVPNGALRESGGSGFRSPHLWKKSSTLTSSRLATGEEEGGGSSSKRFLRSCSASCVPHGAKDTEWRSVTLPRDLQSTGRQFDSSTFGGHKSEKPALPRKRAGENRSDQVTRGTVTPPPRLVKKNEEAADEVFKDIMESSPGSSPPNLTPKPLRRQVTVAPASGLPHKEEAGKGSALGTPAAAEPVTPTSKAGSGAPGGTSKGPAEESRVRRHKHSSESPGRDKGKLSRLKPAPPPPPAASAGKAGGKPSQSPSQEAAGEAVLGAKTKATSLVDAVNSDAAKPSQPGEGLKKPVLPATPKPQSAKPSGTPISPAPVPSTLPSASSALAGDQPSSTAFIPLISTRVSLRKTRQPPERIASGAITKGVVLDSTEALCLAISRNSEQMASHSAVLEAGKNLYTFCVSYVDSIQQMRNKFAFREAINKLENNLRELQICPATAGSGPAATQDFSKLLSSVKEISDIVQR
T3 sequence (Q9P1W9 whole entry): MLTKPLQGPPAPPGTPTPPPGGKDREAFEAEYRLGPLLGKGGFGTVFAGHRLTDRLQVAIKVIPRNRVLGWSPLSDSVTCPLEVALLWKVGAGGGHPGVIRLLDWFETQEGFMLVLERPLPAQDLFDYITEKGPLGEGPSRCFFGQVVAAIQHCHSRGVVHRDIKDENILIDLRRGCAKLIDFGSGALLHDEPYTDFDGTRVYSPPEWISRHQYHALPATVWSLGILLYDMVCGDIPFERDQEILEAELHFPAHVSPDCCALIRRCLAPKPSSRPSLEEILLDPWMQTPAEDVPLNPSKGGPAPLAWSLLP

SMILES | remaining activity at 1 µM (panel of 442 kinases [1]; [9]) | remaining activity at 10 µM (panel of 442 kinases [1]; kinase RSK1(Kin.Dom.1-N-terminal), read-out: RSK1(Kin.Dom.1-N-terminal) (% of control at 10 µM)) | remaining activity at 1 µM (panel of 442 kinases [1]; [10]) | remaining activity at 10 µM (panel of 442 kinases [1]; kinase RSK1(Kin.Dom.2-C-terminal), read-out: RSK1(Kin.Dom.2-C-terminal) (% of control at 10 µM)) | remaining activity at 1 µM (panel of 442 kinases [2]) | remaining activity at 10 µM (panel of 442 kinases [2]; [11]) | remaining activity at 1 µM (panel of 442 kinases [3]) | remaining activity at 10 µM (panel of 442 kinases [3]; [11]) | remaining activity at 1 µM (panel of 442 kinases [4]) | remaining activity at 10 µM (panel of 442 kinases [4]; [11]) | remaining activity at 1 µM (panel of 442 kinases [5]) | remaining activity at 10 µM (panel of 442 kinases [5]; [11]) | remaining activity at 1 µM (panel of 442 kinases [6]) | remaining activity at 10 µM (panel of 442 kinases [6]; [11]) | remaining activity at 1 µM (panel of 442 kinases [7]) | remaining activity at 10 µM (panel of 442 kinases [7]; [11]) | remaining activity at 1 µM (panel of 442 kinases [8]; [12]) | remaining activity at 10 µM (panel of 442 kinases [8]; kinase TYK2(JH1domain-catalytic), read-out: TYK2(JH1domain-catalytic) (% of control at 10 µM)) | remaining activity at 1 µM (panel of 442 kinases [8]; [13]) | remaining activity at 10 µM (panel of 442 kinases [8]; kinase TYK2(JH2domain-pseudokinase), read-out: TYK2(JH2domain-pseudokinase) (% of control at 10 µM))
Nc1cc(C(F)(F)F)c(-c2cc(N3CCOCC3)nc(N3CCOCC3)n2)cn1 [Buparlisib] | 100% | 100% | 97% | 98% | 62% | 67% | 91% | 100% | 93% | 100% | 79% | 82% | 84% | 100% | 74% | 96% | 100% | 100% | 32% | 22%
Cn1c(=O)n(-c2ccc(C(C)(C)C#N)cc2)c2c3cc(-c4cnc5ccccc5c4)ccc3ncc21 [Dactolisib, 2-methyl-2-[4-(3-methyl-2-oxo-8-quinolin-3-yl-2,3-dihydroimidazo[4,5-c]quinolin-1-yl)-phenyl] propionitrile] | 77% | – | 61% | – | 68% | – | 100% | – | 81% | – | 100% | – | 94% | – | 79% | – | 26% | – | 65% | –
COc1ncc(-c2ccc3nccc(-c4ccnnc4)c3c2)cc1NS(=O)(=O)c1ccc(F)cc1F [Omipalisib] | 95% | – | 95% | – | 88% | – | 98% | – | 95% | – | 100% | – | 100% | – | 95% | – | 100% | – | 78% | –
FC(F)c1nc2ccccc2n1-c1nc(N2CCOCC2)nc(N2CCOCC2)n1 [ZSTK474, 2-(difluoromethyl)-1-[4,6-di(4-morpholinyl)-1,3,5-triazin-2-yl]-1H-benzimidazole] | 100% | – | 83% | – | 100% | – | 100% | – | 84% | – | 92% | – | 100% | – | 100% | – | 93% | – | 97% | –
